Measured values taken from patent publication US9796711B2, “Substituted pyrazolo[3,4-b]pyridin-6-carboxylic acids and method of use” (AbbVie S.àr.l., priority 2015, dated 2017).

What was measured:
ΔF508-CFTR [1] = molecular target: T1, ΔF508-CFTR (Homo sapiens, UniProt P13569, DEL508-508); assay: CFTR cell surface levels using HRP-tagged ΔF508-CFTR expressing CFBE cells, intrinsic corrector capacity; format: cell-based; conditions: for EC50: read-out: EC50
T1 construct: host or cells: CFBE41o-, doxycycline-inducible
T1 sequence (P13569 with tags, fused parts or gaps DEL508-508): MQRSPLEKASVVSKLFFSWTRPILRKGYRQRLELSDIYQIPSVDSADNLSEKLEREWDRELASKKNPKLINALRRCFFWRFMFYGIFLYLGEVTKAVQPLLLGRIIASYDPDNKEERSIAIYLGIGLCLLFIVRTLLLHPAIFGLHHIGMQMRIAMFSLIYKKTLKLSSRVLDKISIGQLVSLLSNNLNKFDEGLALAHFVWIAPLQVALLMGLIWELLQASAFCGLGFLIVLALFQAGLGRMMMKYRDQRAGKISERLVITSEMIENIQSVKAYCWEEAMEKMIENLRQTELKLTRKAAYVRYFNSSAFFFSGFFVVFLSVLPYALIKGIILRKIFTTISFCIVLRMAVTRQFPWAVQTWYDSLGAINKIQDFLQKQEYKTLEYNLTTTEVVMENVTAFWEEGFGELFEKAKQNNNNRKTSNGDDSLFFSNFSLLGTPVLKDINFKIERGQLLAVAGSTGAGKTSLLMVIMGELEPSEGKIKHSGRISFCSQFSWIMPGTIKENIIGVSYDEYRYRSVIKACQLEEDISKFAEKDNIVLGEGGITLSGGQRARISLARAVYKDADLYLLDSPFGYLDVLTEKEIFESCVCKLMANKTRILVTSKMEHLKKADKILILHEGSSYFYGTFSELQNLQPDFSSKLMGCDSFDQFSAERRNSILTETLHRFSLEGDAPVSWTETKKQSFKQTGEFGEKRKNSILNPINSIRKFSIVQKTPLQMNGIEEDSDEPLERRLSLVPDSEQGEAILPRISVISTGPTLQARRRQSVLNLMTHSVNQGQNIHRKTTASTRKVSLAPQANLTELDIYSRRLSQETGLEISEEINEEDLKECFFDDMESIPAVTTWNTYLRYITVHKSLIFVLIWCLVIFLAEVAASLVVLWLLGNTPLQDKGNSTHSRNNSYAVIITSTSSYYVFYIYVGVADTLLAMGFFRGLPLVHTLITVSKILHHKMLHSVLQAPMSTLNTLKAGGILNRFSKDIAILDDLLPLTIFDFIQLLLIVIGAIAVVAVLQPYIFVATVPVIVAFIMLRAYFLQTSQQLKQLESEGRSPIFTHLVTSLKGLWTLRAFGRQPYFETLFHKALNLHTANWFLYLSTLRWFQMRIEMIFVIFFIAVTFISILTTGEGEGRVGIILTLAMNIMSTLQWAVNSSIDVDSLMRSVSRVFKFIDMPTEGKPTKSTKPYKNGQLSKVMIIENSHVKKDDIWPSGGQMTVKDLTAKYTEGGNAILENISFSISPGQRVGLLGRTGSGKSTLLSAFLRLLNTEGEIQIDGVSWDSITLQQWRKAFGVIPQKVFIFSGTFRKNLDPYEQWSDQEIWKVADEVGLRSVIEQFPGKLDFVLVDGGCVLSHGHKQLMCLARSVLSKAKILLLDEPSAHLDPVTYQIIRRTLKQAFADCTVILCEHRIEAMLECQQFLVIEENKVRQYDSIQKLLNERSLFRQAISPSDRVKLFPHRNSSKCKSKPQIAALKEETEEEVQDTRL
Method in brief: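 Here the cells express ΔF508-CFTR with horseradish peroxidase inserted in extracellular loop 4, so only rescued channel at the surface gives luminescent signal. Compounds act on their own, 20 h at the reduced temperature of 33 °C; values are percent activity relative to DMSO and a 3 μM corrector.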

ΔF508-CFTR [2] = molecular target: T1, ΔF508-CFTR; assay: CFTR cell surface levels using HRP-tagged ΔF508-CFTR expressing CFBE cells, in the presence of a co-corrector; format: cell-based; conditions: HRP-tagged ΔF508-CFTR expressing CFBE cells, in the presence of 3 μM co-corrector; for EC50: read-out: EC50
Method in brief: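 Cells were seeded with 0.5 μg/mL doxycycline and held 68 h at 37 °C. Test compounds plus 3 μM co-corrector (final 0.1% DMSO) were then added for 20 h at 33 °C. Washed cells received HRP substrate, and luminescence was normalized between DMSO and 3 μM co-corrector controls.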

[3] = HRP-tagged ΔF508-CFTR CFBE41o- cells, compounds alone (intrinsic corrector capacity), 20 hours at 33° C., positive control 3 μM corrector
[4] = HRP-tagged ΔF508-CFTR CFBE41o- cells, compounds alone (intrinsic corrector capacity), 20 hours at 33° C.
[5] = HRP-tagged ΔF508-CFTR expressing CFBE cells, intrinsic corrector capacity (no co-corrector), 33° C., 20 hours

SMILES | % Activation (ΔF508-CFTR [1]; [3]) | EC50 (ΔF508-CFTR [1]; [4]) | % Activation (ΔF508-CFTR [2]) | EC50 (ΔF508-CFTR [2]) | % Activation (ΔF508-CFTR [1]; [5]) | EC50 (ΔF508-CFTR [1]; [5])
Cc1nn(-c2ccccc2)c2nc(C(=O)O)cc(N3CCN(CC(=O)N(C)C)CC3)c12 [compound 323, 4-{4-[2-(dimethylamino)-2-oxoethyl]piperazin-1-yl}-3-methyl-1-phenyl-1H-pyrazolo[3,4-b]pyridine-6-carboxylic acid] | 8.143% | > 10000 nM | 128.4% | > 10000 nM | – | –
O=C1CC[C@H](COc2cc(C(=O)O)nc3c2c(C2CCC2)nn3-c2ccccc2)N1 [compound 617, 3-cyclobutyl-4-{[(2R)-5-oxopyrrolidin-2-yl]methoxy}-1-phenyl-1H-pyrazolo[3,4-b]pyridine-6-carboxylic acid] | – | – | 127.3% | > 10000 nM | 7.139% | > 10000 nM
CC(=O)N1CC2CN(c3cc(C(=O)O)nc4c3c(C(C)C)nn4-c3cccc(C)c3)CC2C1 (centres unmarked) [compound 233, 4-(5-acetylhexahydropyrrolo[3,4-c]pyrrol-2(11/)-yl)-1-(3-methylphenyl)-3-(propan-2-yl)-1H-pyrazolo[3,4-b]pyridine-6-carboxylic acid] | 72.33% | 3030 nM | 249.55% | 3340 nM | – | –
O=C(O)c1cc(OC(CN2CCOCC2)CN2CCOCC2)c2c(C3CCC3)nn(-c3ccccc3)c2n1 [compound 641, 4-{[1,3-bis(morpholin-4-yl)propan-2-yl]oxy}-3-cyclobutyl-1-phenyl-1H-pyrazolo[3,4-b]pyridine-6-carboxylic acid] | – | – | 239.75% | 2270 nM | 65.07% | 3330 nM
CC1OCC(Oc2cc(C(=O)O)nc3c2c(C2CCC2)nn3-c2ccccc2)CO1 (centres unmarked) [compound 493, 3-cyclobutyl-4-[(2-methyl-1,3-dioxan-5-yl)oxy]-1-phenyl-1H-pyrazolo[3,4-b]pyridine-6-carboxylic acid] | – | – | 286.5% | 396 nM | 129.05% | 645 nM
O=C(O)c1cc(N2C[C@@H](F)C[C@@H]2CO)c2c(C3CCC3)nn(-c3ccccc3)c2n1 [compound 514, 3-cyclobutyl-4-[(2R,4S)-4-fluoro-2-(hydroxymethyl)pyrrolidin-1-yl]-1-phenyl-1H-pyrazolo[3,4-b]pyridine-6-carboxylic acid] | – | – | 178.2% | 3330 nM | 37.34% | 3340 nM
CC1(CCOc2cc(C(=O)O)nc3c2c(C2CCC2)nn3-c2ccccc2)CC1 [compound 631, 3-cyclobutyl-4-[2-(1-methylcyclopropyl)ethoxy]-1-phenyl-1H-pyrazolo[3,4-b]pyridine-6-carboxylic acid] | – | – | 283% | 177 nM | 99.143% | 346 nM
Cc1cccc(-n2nc(C(C)C)c3c(N4CC5CN(C(=O)OC(C)(C)C)CC5C4)cc(C(=O)O)nc32)c1 (centres unmarked) [compound 216, 4-[5-(tert-butoxycarbonyl)hexahydropyrrolo[3,4-c]pyrrol-2(1H)-yl]-1-(3-methylphenyl)-3-(propan-2-yl)-1H-pyrazolo[3,4-b]pyridine-6-carboxylic acid] | 161% | 1010 nM | 431.7% | 1110 nM | – | –
CN(C)CCCOc1cc(C(=O)O)nc2c1c(C1CCC1)nn2-c1ccccc1 [compound 635, 3-cyclobutyl-4-[3-(dimethylamino)propoxy]-1-phenyl-1H-pyrazolo[3,4-b]pyridine-6-carboxylic acid] | – | – | 233.85% | 2110 nM | 86.1% | 3330 nM
O=C(O)c1cc(N2CCC([C@H](F)CO)CC2)c2c(C3CCC3)nn(-c3ccccc3)c2n1 [compound 457, 3-cyclobutyl-4-{4-[(1S)-1-fluoro-2-hydroxyethyl]piperidin-1-yl}-1-phenyl-1H-pyrazolo[3,4-b]pyridine-6-carboxylic acid] | – | – | 430.85% | 392 nM | 240.3% | 607 nM
CC(C)c1nn(-c2ccc(F)cc2)c2nc(C(=O)O)cc(N3CCC(CCN4CCN(C)CC4)CC3)c12 [compound 785, 1-(4-fluorophenyl)-4-{4-[2-(4-methylpiperazin-1-yl)ethyl]piperidin-1-yl}-3-(propan-2-yl)-1H-pyrazolo[3,4-b]pyridine-6-carboxylic acid] | – | – | 482.8% | 558 nM | 264.9% | 622 nM
CC(C)c1nn(C2CCCCC2)c2nc(C(=O)O)cc(-c3cnc(N4CCCC(C#N)C4)nc3)c12 (centres unmarked) [compound 366, 4-[2-(3-cyanopiperidin-1-yl)pyrimidin-5-yl]-1-cyclohexyl-3-(propan-2-yl)-1H-pyrazolo[3,4-b]pyridine-6-carboxylic acid] | 199.1% | 436 nM | 385.85% | 602 nM | – | –
N#CC1CN(C2CCN(c3cc(C(=O)O)nc4c3c(C3CCC3)nn4-c3ccc(F)cc3)CC2)CCO1 (centres unmarked) [compound 851, 4-[4-(2-cyanomorpholin-4-yl)piperidin-1-yl]-3-cyclobutyl-1-(4-fluorophenyl)-1H-pyrazolo[3,4-b]pyridine-6-carboxylic acid] | – | – | 559.8% | 123 nM | 342.9% | 244 nM
O=C(O)c1cc(N2CCN(CC(F)(F)F)CC2)c2c(C3CCC3)nn(-c3ccccc3)c2n1 [compound 470, 3-cyclobutyl-1-phenyl-4-[4-(2,2,2-trifluoroethyl)piperazin-1-yl]-1H-pyrazolo[3,4-b]pyridine-6-carboxylic acid] | – | – | 311.25% | 427 nM | 147.5% | 736 nM
CN(C)c1ncc(-c2cc(C(=O)O)nc3c2c(C(C)(C)C)nn3C2CCCCC2)cn1 [compound 147, 3-tert-butyl-1-cyclohexyl-4-[2-(dimethylamino)pyrimidin-5-yl]-1H-pyrazolo[3,4-b]pyridine-6-carboxylic acid] | 114.65% | 1050 nM | 318.9% | 831 nM | – | –
CC1(c2nn(-c3ccccc3)c3nc(C(=O)O)cc(-c4ccc(N5CCOCC5)cc4)c23)CC1 [compound 129, 3-(1-methylcyclopropyl)-4-[4-(morpholin-4-yl)phenyl]-1-phenyl-1H-pyrazolo[3,4-b]pyridine-6-carboxylic acid] | 178.3% | 414 nM | 380% | 390 nM | – | –
COCC1(F)CCN(c2cc(C(=O)O)nc3c2c(C2CCC2)nn3-c2ccccc2)CC1 [compound 463, 3-cyclobutyl-4-[4-fluoro-4-(methoxymethyl)piperidin-1-yl]-1-phenyl-1H-pyrazolo[3,4-b]pyridine-6-carboxylic acid] | – | – | 341.85% | 373 nM | 157.75% | 686 nM
CN1CC[C@H](Oc2cc(C(=O)O)nc3c2c(C2CCC2)nn3-c2ccccc2)C1 [compound 651, 3-cyclobutyl-4-{[(3S)-1-methylpyrrolidin-3-yl]oxy}-1-phenyl-1H-pyrazolo[3,4-b]pyridine-6-carboxylic acid] | – | – | 187.9% | 2200 nM | 54.22% | 3330 nM
Cc1nn(-c2cccc(C(F)(F)F)c2)c2nc(C(=O)O)cc(-c3ccc(N4CCOCC4)nc3)c12 [compound 102, 3-methyl-4-[6-(morpholin-4-yl)pyridin-3-yl]-1-[3-(trifluoromethyl)phenyl]-1H-pyrazolo[3,4-b]pyridine-6-carboxylic acid] | 153% | 1040 nM | 384% | 949 nM | – | –
CC(C)c1nn(C2CCCC2)c2nc(C(=O)O)cc(-c3ccc(N4CCOCC4)cc3)c12 [compound 69, 1-cyclopentyl-4-[4-(morpholin-4-yl)phenyl]-3-(propan-2-yl)-1H-pyrazolo[3,4-b]pyridine-6-carboxylic acid] | 150.25% | 970 nM | 366.8% | 993 nM | – | –
O=C(O)c1cc(-c2ccc(N3CCOCC3)cc2)c2c(C3CCC3)nn(-c3cccc(F)c3)c2n1 [compound 349, 3-cyclobutyl-1-(3-fluorophenyl)-4-[4-(morpholin-4-yl)phenyl]-1H-pyrazolo[3,4-b]pyridine-6-carboxylic acid] | 208.2% | 460 nM | 382.73% | 236 nM | – | –
CC(=O)N1CCC2CN(c3cc(C(=O)O)nc4c3c(C(C)C)nn4-c3cccc(C)c3)CCC21 (centres unmarked) [compound 255, 4-(1-acetyloctahydro-5H-pyrrolo[3,2-c]pyridin-5-yl)-1-(3-methylphenyl)-3-(propan-2-yl)-1H-pyrazolo[3,4-b]pyridine-6-carboxylic acid] | 120.77% | 442 nM | 302.97% | 294 nM | – | –
Cc1cccc(-n2nc(C(C)C)c3c(N4CC5(CCCCO5)C4)cc(C(=O)O)nc32)c1 [compound 274, 1-(3-methylphenyl)-4-(5-oxa-2-azaspiro[3.5]nonan-2-yl)-3-(propan-2-yl)-1H-pyrazolo[3,4-b]pyridine-6-carboxylic acid] | 114.64% | 1080 nM | 301.45% | 902 nM | – | –
